Common to all, as to assay type: cell-based
One assay deals with Escherichia coli U 20. Particulars: U20, agar serial dilution, 24 hours at 37°C.
Assay [1] relates to Streptococcus faecalis L 80. The settings on record: Enterococcus faecalis, L80; agar serial dilution, 24 hours at 37°C.
Assay [2] relates to Streptococcus haemolyticus A 266. The settings on record: A266, agar serial dilution, 24 hours at 37°C.
In assay [3] the test system is Bacillus subtilis ATCC 6633. Particulars: ATCC6633, agar serial dilution, 24 hours at 37°C.
The test system of assay [4] is Pseudomonas aeruginosa Wyeth A 1058. The settings on record: WYETHA1058, agar serial dilution, 24 hours at 37°C.
Assay [5] concerns Pasteurella multocida A 723. Particulars: A723, agar serial dilution, 24 hours at 37°C.
In assay [6] the test system is Salmonella typhimurium R 127. The settings on record: Salmonella enterica, agar serial dilution, 24 hours at 37°C.
In another assay the test system is Proteus morganii 2241. The settings on record: Morganella morganii, agar serial dilution, 24 hours at 37°C.
Assay [7] has as its system Staphylococcus aureus A 355'. The settings on record: agar serial dilution, 24 hours at 37°C.
The next assay has as its system Proteus mirabilis A 1200. The settings on record: A1200, agar serial dilution, 24 hours at 37°C.
In the next assay the test system is Proteus rettgeri A 821. Particulars: Providencia rettgeri, A821; agar serial dilution, 24 hours at 37°C.
Assay [8] relates to Pseudomonas aeruginosa 2396. The settings on record: agar serial dilution, 24 hours at 37°C.
Assay [9] concerns Pseudomonas aeruginosa H 10. The settings on record: H10, agar serial dilution, 24 hours at 37°C.
Assay [10] relates to Staphylococcus aureus A 2000. Particulars: A2000, agar serial dilution, 24 hours at 37°C.
The subject of assay [11] is Staphylococcus aureus A 321. The settings on record: A321, agar serial dilution, 24 hours at 37°C.
For assay [12], the system named is Klebsiella pneumoniae A 809. The settings on record: A809, agar serial dilution, 24 hours at 37°C.
The subject of another assay is Salmonella dublin P 43. The settings on record: Salmonella enterica, P43; agar serial dilution, 24 hours at 37°C.
The subject of assay [13] is Diplococcus pneumoniae L 54. Particulars: Streptococcus pneumoniae, L54; agar serial dilution, 24 hours at 37°C.
Another assay deals with Proteus mirabilis H 3. The settings on record: H3, agar serial dilution, 24 hours at 37°C.
Assay [14] deals with Staphylococcus aureus A 2001. The settings on record: A2001, agar serial dilution, 24 hours at 37°C.

Converted amounts (≈) assume the structure as drawn. Bounds are passed on as bounds.

On to `CC(C)NS(=O)(=O)NC(=O)N[C@@H](C(=O)N[C@@H]1C(=O)N2[C@@H]1SC(C)(C)[C@@H]2C(=O)O)c1ccccc1` [IX, D-6-[α-{3-(isopropylaminosulfonyl)-ureido}-benzylcarbonamido]-penicillanic acid], for which the MIC with Escherichia coli U 20 was 25 mg/L (≈ 48.7 µM); in assay [1], 25 mg/L (≈ 48.7 µM); in assay [2] it was 0.75 mg/L (≈ 1.46 µM); in [3], 1.5 mg/L (≈ 2.92 µM); in assay [4] it was greater than 100 mg/L; in assay [5], 0.5 mg/L (≈ 0.974 µM). In addition, the MIC was 50 mg/L (≈ 97.4 µM) in assay [6]; 100 mg/L (≈ 195 µM) in the assay with Proteus morganii 2241; 25 mg/L (≈ 48.7 µM) in assay [7]; 6 mg/L (≈ 11.7 µM) in the assay on Proteus mirabilis A 1200; 0.75 mg/L (≈ 1.46 µM) with Proteus rettgeri A 821; greater than 100 mg/L in [8]. Further, the MIC was greater than 100 mg/L in [9], 25 mg/L (≈ 48.7 µM) in [10], 1.5 mg/L (≈ 2.92 µM) in assay [11] and 100 mg/L (≈ 195 µM) in [12].

In the case of `CCOS(=O)(=O)NC(=O)N[C@@H](C(=O)N[C@@H]1C(=O)N2[C@@H]1SC(C)(C)[C@@H]2C(=O)O)c1ccccc1` [VI, D-6-[α-{3-(ethoxysulfonyl)-ureido}-benzylcarbonamido]-penicillanic acid], the MIC was 12.5 mg/L (≈ 25 µM) against Escherichia coli U 20; 25 mg/L (≈ 49.9 µM) in [1]; 0.25 mg/L (≈ 0.499 µM) in assay [2]; 0.25 mg/L (≈ 0.499 µM) in assay [3]; 25 mg/L (≈ 49.9 µM) in [4]; greater than 100 mg/L in [5]. In addition, the MIC in assay [6] is 25 mg/L (≈ 49.9 µM); in the assay with Proteus morganii 2241, greater than 100 mg/L; with Salmonella dublin P 43, 6 mg/L (≈ 12 µM); in assay [7], 50 mg/L (≈ 99.9 µM); in assay [13], 6 mg/L (≈ 12 µM); against Proteus mirabilis A 1200, 1.5 mg/L (≈ 3 µM). In addition, the MIC is 1.5 mg/L (≈ 3 µM) with Proteus rettgeri A 821; 12.5 mg/L (≈ 25 µM) with Proteus mirabilis H 3; 6 mg/L (≈ 12 µM) in assay [14]; 25 mg/L (≈ 49.9 µM) in assay [8]; 100 mg/L (≈ 200 µM) in assay [9]; 12.5 mg/L (≈ 25 µM) in [10]. Moreover, the results for the minimal inhibitory concentration (MIC) in assay [11] and in assay [12] were 1.5 mg/L (≈ 3 µM) and greater than 100 mg/L, respectively.

For the compound `CC(C)N(C(C)C)S(=O)(=O)NC(=O)N[C@@H](C(=O)N[C@@H]1C(=O)N2[C@@H]1SC(C)(C)[C@@H]2C(=O)O)c1ccccc1` [VIII, D-6-[α-{3-(diisopropylaminosulfonyl)-ureido}-benzylcarbonamido]-penicillanic acid], the MIC amounted to 25 mg/L (≈ 45 µM) in the assay with Escherichia coli U 20; 6 mg/L (≈ 10.8 µM) in assay [1]; 0.25 mg/L (≈ 0.45 µM) in [2]; 1 mg/L (≈ 1.8 µM) in assay [3]; 50 mg/L (≈ 90 µM) in assay [4]; 6 mg/L (≈ 10.8 µM) in [5]. Moreover, the MIC is 100 mg/L (≈ 180 µM) in assay [6]; 100 mg/L (≈ 180 µM) in the assay with Proteus morganii 2241; 25 mg/L (≈ 45 µM) in the assay with Salmonella dublin P 43; 1 mg/L (≈ 1.8 µM) in assay [13]; 50 mg/L (≈ 90 µM) in the assay on Proteus mirabilis A 1200; 25 mg/L (≈ 45 µM) with Proteus rettgeri A 821. The MIC against Proteus mirabilis H 3 is 100 mg/L (≈ 180 µM); in assay [14] it was 6 mg/L (≈ 10.8 µM); in [8], 50 mg/L (≈ 90 µM); in assay [9] it was 100 mg/L (≈ 180 µM); in [11], 1 mg/L (≈ 1.8 µM); in assay [12] it was 25 mg/L (≈ 45 µM).

Regarding `CC1(C)S[C@@H]2[C@H](NC(=O)[C@H](NC(=O)NS(=O)(=O)Nc3cccnc3)c3ccccc3)C(=O)N2[C@H]1C(=O)O` [XI, D-6-[α-{3-(pyrid-3-ylaminosulfonyl)-ureido}-benzylcarbonamido]-penicillanic acid], the MIC in the assay with Escherichia coli U 20 is greater than 100 mg/L; in assay [1], 6 mg/L (≈ 10.9 µM); in assay [2], 0.12 mg/L (≈ 0.219 µM); in assay [3], 0.25 mg/L (≈ 0.456 µM); in assay [4], 50 mg/L (≈ 91.1 µM); in [5], 0.5 mg/L (≈ 0.911 µM). Moreover, the MIC is greater than 100 mg/L in assay [6]; greater than 100 mg/L against Proteus morganii 2241; 50 mg/L (≈ 91.1 µM) in the assay with Salmonella dublin P 43; 0.25 mg/L (≈ 0.456 µM) in assay [13]; 3 mg/L (≈ 5.47 µM) with Proteus rettgeri A 821; less than 0.75 mg/L against Proteus mirabilis H 3. The MIC in assay [8] is 50 mg/L (≈ 91.1 µM); in [9], greater than 100 mg/L; in assay [11], 3 mg/L (≈ 5.47 µM); in assay [12] it was greater than 100 mg/L.

With `Cc1cc(NS(=O)(=O)NC(=O)N[C@@H](C(=O)N[C@@H]2C(=O)N3[C@@H]2SC(C)(C)[C@@H]3C(=O)O)c2ccccc2)no1` [XII, D-6-[α-{3-(5-methylisoxazol-3-yl-aminosulfonyl)-ureido}-benzylcarbonamido]-penicillanic acid], the MIC turned out to be 25 mg/L (≈ 45.2 µM) against Escherichia coli U 20; 25 mg/L (≈ 45.2 µM) in assay [1]; 1.5 mg/L (≈ 2.71 µM) in assay [2]; 1.5 mg/L (≈ 2.71 µM) in assay [3]; 25 mg/L (≈ 45.2 µM) in [4]; 1.5 mg/L (≈ 2.71 µM) in assay [5]. Besides, the minimum inhibitory concentration (MIC) is 25 mg/L (≈ 45.2 µM) in assay [6]; 50 mg/L (≈ 90.5 µM) in the assay with Proteus morganii 2241; 12.5 mg/L (≈ 22.6 µM) in the assay with Salmonella dublin P 43; 25 mg/L (≈ 45.2 µM) in assay [7]; 1.5 mg/L (≈ 2.71 µM) against Proteus mirabilis A 1200; 6 mg/L (≈ 10.9 µM) with Proteus rettgeri A 821. Also, the MIC came out at 6 mg/L (≈ 10.9 µM) against Proteus mirabilis H 3; 12.5 mg/L (≈ 22.6 µM) in assay [14]; 25 mg/L (≈ 45.2 µM) in assay [8]; 100 mg/L (≈ 181 µM) in assay [9]; 25 mg/L (≈ 45.2 µM) in [10]; 3 mg/L (≈ 5.43 µM) in assay [11]. Also, inhibition of growth in assay [12] (MIC) required 50 mg/L (≈ 90.5 µM).

On to `CC1(C)S[C@@H]2[C@H](NC(=O)[C@H](NC(=O)NS(=O)(=O)N3CCOCC3)c3ccccc3)C(=O)N2[C@H]1C(=O)O` [XIV, D-6-[α-{3-(morpholino-sulfonyl)-ureido}-benzylcarbonamido]-penicillanic acid], for which the MIC against Escherichia coli U 20 was determined as 50 mg/L (≈ 92.3 µM); in assay [1], 25 mg/L (≈ 46.2 µM); in assay [2] it was 3 mg/L (≈ 5.54 µM); in assay [3], 1.5 mg/L (≈ 2.77 µM); in assay [4], 100 mg/L (≈ 185 µM); in assay [5] it was 0.25 mg/L (≈ 0.462 µM). For the same compound, the MIC was found to be 100 mg/L (≈ 185 µM) in assay [6]; 100 mg/L (≈ 185 µM) with Proteus morganii 2241; 50 mg/L (≈ 92.3 µM) against Salmonella dublin P 43; 25 mg/L (≈ 46.2 µM) in [7]; 3 mg/L (≈ 5.54 µM) in the assay on Proteus mirabilis A 1200; 1.5 mg/L (≈ 2.77 µM) against Proteus rettgeri A 821. Also, the MIC against Proteus mirabilis H 3 is 6 mg/L (≈ 11.1 µM); in assay [14] it was 12.5 mg/L (≈ 23.1 µM); in [8], 50 mg/L (≈ 92.3 µM); in assay [9], 100 mg/L (≈ 185 µM); in assay [10] it was 25 mg/L (≈ 46.2 µM); in assay [11] it was 6 mg/L (≈ 11.1 µM). The same compound showed an MIC in [12] of 100 mg/L (≈ 185 µM).

As to `CC1(C)S[C@@H]2[C@H](NC(=O)[C@H](NC(=O)NS(N)(=O)=O)c3ccccc3)C(=O)N2[C@H]1C(=O)O` [XVI, D-6-[α-{3-(aminosulfonyl)-ureido}-benzylcarbonamido]-penicillanic acid], the MIC in the assay with Escherichia coli U 20 was 100 mg/L (≈ 212 µM); in [1] it was 6 mg/L (≈ 12.7 µM); in assay [2], 0.12 mg/L (≈ 0.254 µM); in [3], 0.5 mg/L (≈ 1.06 µM); in assay [4] it was 50 mg/L (≈ 106 µM); in assay [5], 0.5 mg/L (≈ 1.06 µM). Further, the MIC is greater than 100 mg/L in assay [6]; greater than 100 mg/L against Proteus morganii 2241; 100 mg/L (≈ 212 µM) in the assay on Salmonella dublin P 43; 25 mg/L (≈ 53 µM) in [7]; 25 mg/L (≈ 53 µM) in the assay on Proteus mirabilis A 1200; 25 mg/L (≈ 53 µM) in the assay with Proteus rettgeri A 821. For the same compound, the MIC in the assay with Proteus mirabilis H 3 is 50 mg/L (≈ 106 µM); in [14] it was 6 mg/L (≈ 12.7 µM); in assay [8] it was 50 mg/L (≈ 106 µM); in [9], greater than 100 mg/L; in assay [10] it was 25 mg/L (≈ 53 µM); in [11] it was 3 mg/L (≈ 6.36 µM). The same compound gave an MIC in [12] greater than 100 mg/L.

Consider `CC1(C)S[C@@H]2[C@H](NC(=O)[C@H](NS(N)(=O)=O)c3ccccc3)C(=O)N2[C@H]1C(=O)O` [XVIII, D-6-[α-(aminosulfonylamino)-benzylcarbonamido]-penicillanic acid], for which the MIC against Escherichia coli U 20 was 12.5 mg/L (≈ 29.2 µM); in assay [1], 1.5 mg/L (≈ 3.5 µM); in assay [2], 0.06 mg/L (≈ 0.14 µM); in assay [3], 0.5 mg/L (≈ 1.17 µM); in assay [4], greater than 100 mg/L; in assay [5], 0.5 mg/L (≈ 1.17 µM). In addition, the MIC in assay [6] was determined as 12.5 mg/L (≈ 29.2 µM); against Proteus morganii 2241 it was 25 mg/L (≈ 58.3 µM); in the assay with Salmonella dublin P 43, 6 mg/L (≈ 14 µM); in assay [7] it was 12.5 mg/L (≈ 29.2 µM); against Proteus mirabilis A 1200, 6 mg/L (≈ 14 µM); in the assay with Proteus rettgeri A 821, 1.5 mg/L (≈ 3.5 µM). In addition, the MIC with Proteus mirabilis H 3 was 12.5 mg/L (≈ 29.2 µM); in assay [14], 3 mg/L (≈ 7 µM); in assay [8], 50 mg/L (≈ 117 µM); in [9] it was greater than 100 mg/L; in assay [10], 6 mg/L (≈ 14 µM); in assay [11], 0.5 mg/L (≈ 1.17 µM). In addition, the MIC in [12] was greater than 100 mg/L.

The record behind these values is patent US3945994A, “Novel acid compounds” (Gist-Brocades N.V., priority 1973, dated 1976).
